These molecules were tested against T1, Peroxisome proliferator-activated receptor gamma (Homo sapiens, UniProt P37231) (assay: Agonist activity at PPARgamma by transactivation assay). Conditions: not given; call rule not given here.
T1 sequence (P37231 whole entry): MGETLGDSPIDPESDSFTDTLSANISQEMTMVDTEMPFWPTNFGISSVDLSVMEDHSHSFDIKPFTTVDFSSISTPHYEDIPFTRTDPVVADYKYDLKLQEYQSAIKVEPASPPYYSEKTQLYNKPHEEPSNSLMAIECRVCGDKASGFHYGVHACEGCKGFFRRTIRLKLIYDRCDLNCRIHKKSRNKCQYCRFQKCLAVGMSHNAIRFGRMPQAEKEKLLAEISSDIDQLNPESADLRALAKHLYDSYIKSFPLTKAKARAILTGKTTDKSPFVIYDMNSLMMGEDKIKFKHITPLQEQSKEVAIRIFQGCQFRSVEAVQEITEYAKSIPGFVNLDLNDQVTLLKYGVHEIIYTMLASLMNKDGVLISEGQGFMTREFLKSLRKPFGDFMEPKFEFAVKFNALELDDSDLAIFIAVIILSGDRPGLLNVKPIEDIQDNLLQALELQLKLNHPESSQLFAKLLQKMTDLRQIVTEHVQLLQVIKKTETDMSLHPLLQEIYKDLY
Assay type: functional

Row | EC50 | SMILES
1 | Not Active | O=C(O)Cc1ccc(-c2noc(C(=O)CCCOc3ccc(Cl)cc3Cl)c2-c2ccccc2)c(Cl)c1
2 | Not Active | Cc1cc(SCc2cc(-c3c(Cl)cccc3Cl)no2)ccc1OCC(=O)O

Same assay, conditions: read-out: EC50

Row | SMILES | EC50
3 | Cc1onc(-c2c(Cl)cccc2Cl)c1C(=O)OCCOc1ccc(C(F)(F)F)cc1[N+](=O)[O-] | > 10 µM
4 | Cc1onc(-c2ccc(CC(=O)O)cc2Cl)c1C(=O)NCCOc1ccc(C(F)(F)F)cc1[N+](=O)[O-] | 1.25 µM
5 | CC(C)(C)c1onc(-c2ccc(CC(=O)O)cc2Cl)c1C(=O)NCCOc1ccc(Cl)cc1Cl | > 10 µM
6 | Cc1onc(-c2ccc(CC(=O)O)cc2Cl)c1C(=O)NCCOc1ccccc1[N+](=O)[O-] | > 10 µM
7 | Cc1onc(-c2ccc(CC(=O)O)cc2Cl)c1C(=O)NCCOc1ccc(C(F)(F)F)cc1C(F)(F)F | > 10 µM
8 | O=C(O)Cc1ccc(-c2noc(-c3ccccc3)c2COCCOc2ccc(Cl)cc2Cl)c(Cl)c1 | > 10 µM
9 | O=C(O)Cc1ccc(-c2noc(-c3ccccc3)c2C(=O)CCCOc2ccc(Cl)cc2Cl)c(Cl)c1 | > 10 µM
10 | O=C(O)Cc1ccc(-c2noc(-c3ccco3)c2C(=O)NCCOc2ccc(Cl)cc2Cl)c(Cl)c1 | > 10 µM
11 | O=C(O)Cc1ccc(-c2noc(C3CC3)c2C(=O)NCCOc2ccc(Cl)cc2Cl)c(Cl)c1 | 3.23 µM
12 | Cc1onc(-c2ccc(CC(=O)O)cc2Cl)c1COCCOc1ccc(C(F)(F)F)cc1[N+](=O)[O-] | > 10 µM

Results, then the molecule that gave them:

Row | EC50 | SMILES
13 | > 10 µM | CN(CCOc1ccc(Cl)cc1Cl)C(=O)c1c(-c2ccc(CC(=O)O)cc2Cl)noc1-c1ccccc1
14 | > 10 µM | CCc1onc(-c2ccc(CC(=O)O)cc2Cl)c1C(=O)NCCOc1ccc(Cl)cc1Cl
15 | > 10 µM | O=C(O)Cc1ccc(-c2noc(-c3ccccc3)c2C(=O)NCCOc2ccc(Cl)cc2Cl)c(Cl)c1
16 | > 10 µM | Cc1onc(-c2ccc(CC(=O)O)cc2Cl)c1C(=O)NCCOc1ccc(C(F)(F)F)cc1
17 | > 10 µM | Cc1onc(-c2ccc(CC(=O)O)cc2Cl)c1C(=O)NCCOc1ccc(Cl)cc1Cl
18 | > 10 µM | CC(C)c1onc(-c2ccc(CC(=O)O)cc2Cl)c1C(=O)NCCOc1ccc(Cl)cc1Cl

What follows are molecules tested against T2, Peroxisome proliferator-activated receptor delta (Homo sapiens, UniProt Q03181). Conditions: not given.
T2 sequence (Q03181 whole entry): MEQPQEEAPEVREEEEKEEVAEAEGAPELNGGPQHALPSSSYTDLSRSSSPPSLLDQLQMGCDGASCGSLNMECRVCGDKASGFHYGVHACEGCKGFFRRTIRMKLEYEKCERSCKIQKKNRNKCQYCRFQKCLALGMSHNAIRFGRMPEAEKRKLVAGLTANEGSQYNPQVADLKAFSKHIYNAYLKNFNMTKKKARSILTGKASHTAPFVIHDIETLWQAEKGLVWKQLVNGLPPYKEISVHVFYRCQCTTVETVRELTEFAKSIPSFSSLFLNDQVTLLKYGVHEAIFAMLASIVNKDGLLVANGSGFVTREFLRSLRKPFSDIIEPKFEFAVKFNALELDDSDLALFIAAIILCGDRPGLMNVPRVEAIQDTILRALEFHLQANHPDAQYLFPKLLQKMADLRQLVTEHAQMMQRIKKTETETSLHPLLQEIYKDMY

Row | SMILES | EC50
19 | Cc1onc(-c2c(Cl)cccc2Cl)c1C(=O)OCCOc1ccc(C(F)(F)F)cc1[N+](=O)[O-] | 0.23 µM
20 | Cc1onc(-c2ccc(CC(=O)O)cc2Cl)c1C(=O)NCCOc1ccc(C(F)(F)F)cc1[N+](=O)[O-] | 0.004 µM
21 | CC(C)(C)c1onc(-c2ccc(CC(=O)O)cc2Cl)c1C(=O)NCCOc1ccc(Cl)cc1Cl | 2.59 µM
22 | Cc1onc(-c2ccc(CC(=O)O)cc2Cl)c1C(=O)NCCOc1ccccc1[N+](=O)[O-] | > 10 µM
23 | Cc1onc(-c2ccc(CC(=O)O)cc2Cl)c1C(=O)NCCOc1ccc(C(F)(F)F)cc1C(F)(F)F | 0.26 µM
24 | O=C(O)Cc1ccc(-c2noc(-c3ccccc3)c2COCCOc2ccc(Cl)cc2Cl)c(Cl)c1 | 0.19 µM
25 | O=C(O)Cc1ccc(-c2noc(-c3ccccc3)c2C(=O)CCCOc2ccc(Cl)cc2Cl)c(Cl)c1 | 0.03 µM
26 | O=C(O)Cc1ccc(-c2noc(-c3ccco3)c2C(=O)NCCOc2ccc(Cl)cc2Cl)c(Cl)c1 | 0.01 µM
27 | O=C(O)Cc1ccc(-c2noc(C3CC3)c2C(=O)NCCOc2ccc(Cl)cc2Cl)c(Cl)c1 | 0.03 µM
28 | Cc1onc(-c2ccc(CC(=O)O)cc2Cl)c1COCCOc1ccc(C(F)(F)F)cc1[N+](=O)[O-] | 0.13 µM

Results, then the molecule that gave them:

Row | EC50 | SMILES
29 | 3.67 µM | CN(CCOc1ccc(Cl)cc1Cl)C(=O)c1c(-c2ccc(CC(=O)O)cc2Cl)noc1-c1ccccc1
30 | 0.11 µM | CCc1onc(-c2ccc(CC(=O)O)cc2Cl)c1C(=O)NCCOc1ccc(Cl)cc1Cl
31 | 0.08 µM | O=C(O)Cc1ccc(-c2noc(-c3ccccc3)c2C(=O)NCCOc2ccc(Cl)cc2Cl)c(Cl)c1
32 | > 10 µM | Cc1onc(-c2ccc(CC(=O)O)cc2Cl)c1C(=O)NCCOc1ccc(C(F)(F)F)cc1
33 | 0.31 µM | Cc1onc(-c2ccc(CC(=O)O)cc2Cl)c1C(=O)NCCOc1ccc(Cl)cc1Cl
34 | 0.09 µM | CC(C)c1onc(-c2ccc(CC(=O)O)cc2Cl)c1C(=O)NCCOc1ccc(Cl)cc1Cl

Molecular target: T2, Peroxisome proliferator-activated receptor delta
Conditions: not given
Remark: another data set of the same source

Row | EC50 | SMILES
35 | Not Active | O=C(O)Cc1ccc(-c2noc(C(=O)CCCOc3ccc(Cl)cc3Cl)c2-c2ccccc2)c(Cl)c1
36 | Not Active | Cc1cc(SCc2cc(-c3c(Cl)cccc3Cl)no2)ccc1OCC(=O)O

These molecules were tested against T3, Peroxisome proliferator-activated receptor alpha (Homo sapiens, UniProt Q07869) (assay: Agonist activity at PPARalpha by transactivation assay). Conditions: not given.
T3 sequence (Q07869 whole entry): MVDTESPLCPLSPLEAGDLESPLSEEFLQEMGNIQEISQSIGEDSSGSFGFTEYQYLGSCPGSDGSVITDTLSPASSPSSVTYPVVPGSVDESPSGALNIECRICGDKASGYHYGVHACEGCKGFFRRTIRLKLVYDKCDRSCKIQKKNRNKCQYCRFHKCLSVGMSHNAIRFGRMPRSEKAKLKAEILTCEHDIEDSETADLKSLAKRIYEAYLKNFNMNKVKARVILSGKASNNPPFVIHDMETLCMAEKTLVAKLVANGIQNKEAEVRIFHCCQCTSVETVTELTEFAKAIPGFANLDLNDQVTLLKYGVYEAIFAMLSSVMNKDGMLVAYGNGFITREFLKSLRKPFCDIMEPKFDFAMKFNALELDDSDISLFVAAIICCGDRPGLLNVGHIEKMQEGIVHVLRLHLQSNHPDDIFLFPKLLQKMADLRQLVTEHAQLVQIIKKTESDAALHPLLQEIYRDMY
Assay type: functional

Row | EC50 | SMILES
37 | Not Active | O=C(O)Cc1ccc(-c2noc(C(=O)CCCOc3ccc(Cl)cc3Cl)c2-c2ccccc2)c(Cl)c1
38 | Not Active | Cc1cc(SCc2cc(-c3c(Cl)cccc3Cl)no2)ccc1OCC(=O)O

Same assay, conditions: read-out: EC50

Row | SMILES | EC50
39 | Cc1onc(-c2c(Cl)cccc2Cl)c1C(=O)OCCOc1ccc(C(F)(F)F)cc1[N+](=O)[O-] | > 10 µM
40 | Cc1onc(-c2ccc(CC(=O)O)cc2Cl)c1C(=O)NCCOc1ccc(C(F)(F)F)cc1[N+](=O)[O-] | 0.34 µM
41 | CC(C)(C)c1onc(-c2ccc(CC(=O)O)cc2Cl)c1C(=O)NCCOc1ccc(Cl)cc1Cl | > 10 µM
42 | Cc1onc(-c2ccc(CC(=O)O)cc2Cl)c1C(=O)NCCOc1ccccc1[N+](=O)[O-] | > 10 µM
43 | Cc1onc(-c2ccc(CC(=O)O)cc2Cl)c1C(=O)NCCOc1ccc(C(F)(F)F)cc1C(F)(F)F | > 10 µM
44 | O=C(O)Cc1ccc(-c2noc(-c3ccccc3)c2COCCOc2ccc(Cl)cc2Cl)c(Cl)c1 | > 10 µM
45 | O=C(O)Cc1ccc(-c2noc(-c3ccccc3)c2C(=O)CCCOc2ccc(Cl)cc2Cl)c(Cl)c1 | > 10 µM
46 | O=C(O)Cc1ccc(-c2noc(-c3ccco3)c2C(=O)NCCOc2ccc(Cl)cc2Cl)c(Cl)c1 | > 10 µM
47 | O=C(O)Cc1ccc(-c2noc(C3CC3)c2C(=O)NCCOc2ccc(Cl)cc2Cl)c(Cl)c1 | 1.67 µM
48 | Cc1onc(-c2ccc(CC(=O)O)cc2Cl)c1COCCOc1ccc(C(F)(F)F)cc1[N+](=O)[O-] | 0.22 µM

Now from value to molecule:

Row | EC50 | SMILES
49 | > 10 µM | CN(CCOc1ccc(Cl)cc1Cl)C(=O)c1c(-c2ccc(CC(=O)O)cc2Cl)noc1-c1ccccc1
50 | > 10 µM | CCc1onc(-c2ccc(CC(=O)O)cc2Cl)c1C(=O)NCCOc1ccc(Cl)cc1Cl
51 | > 10 µM | O=C(O)Cc1ccc(-c2noc(-c3ccccc3)c2C(=O)NCCOc2ccc(Cl)cc2Cl)c(Cl)c1
52 | > 10 µM | Cc1onc(-c2ccc(CC(=O)O)cc2Cl)c1C(=O)NCCOc1ccc(C(F)(F)F)cc1
53 | > 10 µM | Cc1onc(-c2ccc(CC(=O)O)cc2Cl)c1C(=O)NCCOc1ccc(Cl)cc1Cl
54 | 7.11 µM | CC(C)c1onc(-c2ccc(CC(=O)O)cc2Cl)c1C(=O)NCCOc1ccc(Cl)cc1Cl

— ChEMBL document CHEMBL1145320, “3,4,5-Trisubstituted isoxazoles as novel PPARdelta agonists: Part 1” (Bioorg Med Chem Lett, 2006)
